The results in this text go back to PubChem BioAssay AID1963834 (Molecular Pharmacology Branch, DTP, NCI, 2024).

For this experiment, the system named is 873145-292-R-J1-PDC complex spheroid viability. The experiment can be described thus: Anticancer human tumor 873145-292-R-J1-PDC patient-derived renal clear cell carcinoma cell line growth inhibition [POLQ]. The settings on record: for viability, T/C: stronger effect = lower value. The procedure: Multicellular complex tumor spheroid response to Polymerase (POL) inhibitors (novobiocin, ART-558, RP6685) in combination with a variety of drugs and investigational agents in selected tumor cell lines
The POL inhibitors (novobiocin, ART-558, and RP6685) were evaluated both individually and in combination with standard of care and investigational anticancer small molecules within a complex spheroid model of solid tumors. . Complex spheroids include a stromal component modeled by human endothelial cells (HUVEC) and fibroblasts modeled by human mesenchymal stem cells (MSCs). The concentration ranges selected for each drug and investigational agent were based upon clinically achievable concentrations if the clinical Cmax of the agent was known.
Compounds. The drugs and investigational agents: novobiocin (NSC847541), ART-558 (NSC835418), RP-6685 (NSC848927), peposertib (NSC802822), ceralasertib (NSC780249), elimusertib (NSC800525), camonsertib (NSC841442), AZD-1390 (NSC803789), olaparib (NSC753686), talazoparib (NSC767125), rucaparib (NSC756644), sotorasib (NSC818433), MRTX-1133 (NSC836407), SN-38 (NSC673596), topotecan (NSC609699), epotoside (NSC141540), doxorubicin (NSC123127), gemcitabine (NSC613327), 5-fluorouracil (NSC19893), paclitaxel (NSC125973), vemurafenib (NSC761431), MSA-2 (NSC828583), SN-011 (NSC837082), adavosertib (NSC754352), prexasertib (NSC758257), carboplatin (NSC241240) and oxaliplatin (NSC266046), were obtained from the National Cancer Institute (NCI) Developmental Therapeutics Program Chemical Repository (21). The FDA-approved anticancer drug set is available from the Developmental Therapeutics Program at https://dtp.cancer.gov/organization/dscb/obtaining/. […] The stock solutions were prepared in dimethyl sulfoxide (DMSO, Sigma-Aldrich, St. Louis, MO, cat. D2650), except for the platinum compounds which were prepared in saline (Quality Biological, Gaithersburg, MD, cat. 114-055-101), at 800-fold the tested concentration and stored at -70 degrees C prior to their use. All drugs and investigational agents were tested over a range starting from a high concentration at or near the clinical Cmax and decreasing in half-log increments. If the clinical Cmax for an agent had not been determined, the highest concentration tested was 10 microM, except for SN-38, which was tested at a high concentration of 1 microM.
Cell Culture. All cells were maintained in an incubator at 37 degrees C and 5% CO2 with 95% humidity. The PDC lines were cultured according to standard operating procedures established by the NCI PDMR (https://pdmr.cancer.gov). Table 3 of the manuscript, lists the cell lines along with the number of the three cell types plated to form the mct-spheroids and media for tumor cell growth. After thawing, all PDC lines, except 997537-175-T-J1-PDC and 415267-285-R-J2-PDC, were cultured in Matrigel-coated flasks prepared with a working solution of 1X Ham's F-12 nutrient mix, without supplementation (Thermo Fisher Scientific, cat. 11765054), 100 U/mL penicillin-streptomycin (Thermo Fisher Scientific, cat. 15140122), and 2.5% Matrigel (Corning Inc., Corning, NY, cat. 354248) for the first three passages. The two PDC lines 997537-175-T-J1-PDC and 415267-285-R-J2-PDC were cultured on uncoated flasks. The 857933-349-R-J2-PDC line was cultured in 6C/Colon 1B media containing advanced DMEM/F-12 (Thermo Fisher Scientific, cat. 12634028), 10 mM HEPES (Thermo Fisher Scientific, cat. 15630080), 1X GlutaMAX supplement (Thermo Fisher Scientific, cat. 35050061), 0.1 mg/mL primocin (InvivoGen, San Diego, CA, cat. ant-pm-2), 10% defined fetal bovine serum, heat inactivated (HyClone Laboratories Inc., Logan, UT, cat. SH30070.03HI), 50% L-WRN conditioned media (ATCC, cat. CRL-3276), 1.25 mM N-Acetyl-L-cysteine (Sigma-Aldrich, cat. A9165), 10 mM nicotinamide (Sigma-Aldrich, cat. N0636), 1X B-27 supplement (Thermo Fisher Scientific, cat. 17504044), 1X N-2 supplement (Thermo Fisher Scientific, cat. […]

Where “and” joins values, the source holds several entries; their conditions need not be identical. Equal values may be shown once.
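Also: spheroids exposed to compounds for 7 days before viability readout.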
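For viability, T/C in this document: luminescence signal used as surrogate for viable cell content; 100% = DMSO vehicle control viability.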

As for `C#Cc1c(F)ccc2cc(O)cc(-c3ncc4c(N5CC6CCC(C5)N6)nc(OCC56CCCN5CC(F)C6)nc4c3F)c12` (stereo not given), the viability, T/C runs as follows: (compound 0.0316 µM) 99.2% and 106% and 107%; (compound 0.1 µM) 104% and 107% and 91.8%; (compound 0.316 µM) 90.8% and 96.4% and 88.5%; (compound 1 µM) 89% and 91.7% and 89.9%; (compound 3.16 µM) 91.4% and 107% and 86%; (compound 10 µM) 85% and 95.8% and 82.9%. Besides, under “curve of compound”, the IC50 was more than 10 µM.

As for `CC1COCCN1c1cc(C2(O)CC3CCC(C2)O3)c2cnn(-c3ccn[nH]3)c2n1` (stereo not given), the viability, T/C is 86.7% and 86.2% and 97.9% (compound 0.0316 µM); 84.8% and 72% and 82.1% (compound 0.1 µM); 56.8% and 49.1% and 60.9% (compound 0.316 µM); 48.6% and 43% and 55.3% (compound 1 µM); 40% and 39.9% and 48.1% (compound 3.16 µM); 31.9% and 32.5% and 41% (compound 10 µM). The IC50 (curve of compound) is 0.741 µM and 0.385 µM and 1.81 µM.

Turning to `CCc1cc2c(N3CCc4c(cc(Cn5ccnc5)cc4-c4cn(C)nc4C(F)(F)F)C3=O)cc(C)nc2c(OC)n1`, the viability, T/C (compound 0.0316 µM) is 95.3% and 101% and 104%; the viability, T/C (compound 0.1 µM) was 96.6% and 94.7% and 102%; the viability, T/C (compound 0.316 µM) was 88.5% and 93.9% and 90.2%; the viability, T/C (compound 1 µM) was 94.2% and 85.1% and 80.9%; the viability, T/C (compound 3.16 µM) is 85.1% and 79.1% and 86.5%; the viability, T/C (compound 10 µM) is 80.2% and 85.1% and 81%. For the same molecule, where the note is “curve of compound”, the IC50 was more than 10 µM.

`CCc1cc2c(N3CCc4c(cc(Cn5ccnc5)cc4-c4cn(C)nc4C(F)(F)F)C3=O)ccnc2c(OC)n1`: the viability, T/C is 107% and 99% and 101% (compound 0.0316 µM); 89.9% and 92.2% and 96.8% (compound 0.1 µM); 89.1% and 97.3% and 84.2% (compound 0.316 µM); 92.1% and 87.7% and 87.1% (compound 1 µM); 86.4% and 98% and 86.1% (compound 3.16 µM); 75.7% and 91.9% and 81.5% (compound 10 µM). In addition, under “curve of compound”, the IC50 was more than 10 µM.

Turning to `COc1cc2cc(C(=O)CCC(=O)O)sc2cc1OC`, the viability, T/C runs as follows: (compound 0.0316 µM) 112% and 99.5% and 94.5%; (compound 0.1 µM) 107% and 103% and 89.5%; (compound 0.316 µM) 96.3% and 97.8% and 104%; (compound 1 µM) 101% and 96.7% and 102%; (compound 3.16 µM) 98.9% and 105% (2×); (compound 10 µM) 99.8% and 101% and 109%. For the same molecule, the IC50 (curve of compound) is more than 10 µM.

Regarding `Nc1ccc(C#CCN(C(=O)Cc2ncc(C(F)(F)F)cc2C(F)(F)F)c2ccc(F)cc2)nn1`, the viability, T/C runs as follows: (compound 0.1 µM) 101% [middle of 13 runs]; (compound 0.316 µM) 101% [middle of 13 runs]; (compound 1 µM) 95.2% [middle of 13 runs]; (compound 3.16 µM) 103% [middle of 13 runs]; (compound 10 µM) 108% [middle of 13 runs]. Besides, the IC50 (compound alone, run of 01/19/2024) is more than 10 µM.

On to `O=C(Nc1ccc(O)c(NS(=O)(=O)c2ccc(F)cc2)c1)c1ccc(-c2ccccc2)cc1`, for which the viability, T/C is 115% and 109% and 103% (compound 0.0316 µM); 97.8% and 105% and 91.7% (compound 0.1 µM); 113% and 107% and 99.3% (compound 0.316 µM); 105% and 99.7% and 101% (compound 1 µM); 105% (2×) and 108% (compound 3.16 µM); 104% and 99.2% and 98.4% (compound 10 µM). Further, the IC50 (curve of compound) is more than 10 µM.

As to `CC(=O)O[C@H]1C(=O)[C@@]2(C)[C@H]([C@H](OC(=O)c3ccccc3)[C@]3(O)C[C@H](OC(=O)[C@H](O)[C@@H](NC(=O)c4ccccc4)c4ccccc4)C(C)=C1C3(C)C)[C@]1(OC(C)=O)CO[C@@H]1C[C@@H]2O` + COC1C(OC(N)=O)C(O)C(Oc2ccc3c(O)c(NC(=O)c4ccc(O)c(CC=C(C)C)c4)c(=O)oc3c2C)OC1(C)C, the IC50 (curve of first compound, second compound 0.0316 µM) was more than 3 µM; the IC50 (curve of first compound, second compound 0.1 µM) is more than 3 µM; the IC50 (curve of first compound, second compound 0.316 µM) was more than 3 µM; the IC50 (curve of first compound, second compound 1 µM) was more than 3 µM; the IC50 (curve of first compound, second compound 3.16 µM) is more than 3 µM; the IC50 (curve of first compound, second compound 10 µM) was more than 3 µM. Besides, the viability, T/C runs as follows: (second compound 0.0316 µM, first compound 0.00949 µM) 90.9%; (second compound 0.0316 µM, first compound 0.03 µM) 67.2%; (second compound 0.0316 µM, first compound 0.0949 µM) 67.1%; (second compound 0.0316 µM, first compound 0.3 µM) 61.8%; (second compound 0.0316 µM, first compound 0.949 µM) 60.2%; (second compound 0.0316 µM, first compound 3 µM) 66.4%. For the same molecule, the viability, T/C by setting is: (second compound 0.1 µM, first compound 0.00949 µM) 77.6%; (second compound 0.1 µM, first compound 0.03 µM) 75.2%; (second compound 0.1 µM, first compound 0.0949 µM) 73.9%; (second compound 0.1 µM, first compound 0.3 µM) 58.5%; (second compound 0.1 µM, first compound 0.949 µM) 58.5%; (second compound 0.1 µM, first compound 3 µM) 57.3%. In addition, the viability, T/C reads like this: (second compound 0.316 µM, first compound 0.00949 µM) 79.1%; (second compound 0.316 µM, first compound 0.03 µM) 73.5%; (second compound 0.316 µM, first compound 0.0949 µM) 66.6%; (second compound 0.316 µM, first compound 0.3 µM) 60.9%; (second compound 0.316 µM, first compound 0.949 µM) 55.7%; (second compound 0.316 µM, first compound 3 µM) 60.1%. The viability, T/C (second compound 1 µM, first compound 0.00949 µM) was 84%; the viability, T/C (second compound 1 µM, first compound 0.03 µM) was 77.7%; the viability, T/C (second compound 1 µM, first compound 0.0949 µM) was 74.8%; the viability, T/C (second compound 1 µM, first compound 0.3 µM) is 59%; the viability, T/C (second compound 1 µM, first compound 0.949 µM) was 57.6%; the viability, T/C (second compound 1 µM, first compound 3 µM) is 57.8%. The viability, T/C was 77.4% (second compound 3.16 µM, first compound 0.00949 µM); 72.5% (second compound 3.16 µM, first compound 0.03 µM); 70.1% (second compound 3.16 µM, first compound 0.0949 µM); 57.9% (second compound 3.16 µM, first compound 0.3 µM); 58.1% (second compound 3.16 µM, first compound 0.949 µM); 58.3% (second compound 3.16 µM, first compound 3 µM). Further, the viability, T/C is, setting by setting: (second compound 10 µM, first compound 0.00949 µM) 78.4%; (second compound 10 µM, first compound 0.03 µM) 69.1%; (second compound 10 µM, first compound 0.0949 µM) 62.3%; (second compound 10 µM, first compound 0.3 µM) 55.7%; (second compound 10 µM, first compound 0.949 µM) 64.1%; (second compound 10 µM, first compound 3 µM) 58.6%.
